Results reported in PubChem BioAssay AID1259407 (Chemical Carcinogenesis Research Information System (CCRIS), 2018).
The source made the active and inactive calls. The rule behind the calls is not given here.

Tested on: CCRIS mutagenicity, Ames/micronucleus/aberration tests
Experiment: CCRIS mutagenicity studies
[1] = Test System: AMES SALMONELLA TYPHIMURIUM, Strain/Indicator: TA100, Metabolic Activation: NONE, Method: PREINCUBATION
[2] = Test System: AMES SALMONELLA TYPHIMURIUM, Strain/Indicator: TA98, Metabolic Activation: NONE, Method: STANDARD PLATE
[3] = Test System: AMES SALMONELLA TYPHIMURIUM, Strain/Indicator: TA98, Metabolic Activation: RAT, LIVER, S-9, AROCLOR 1254, Method: STANDARD PLATE

Measured: mutagenic call

CCC(CO)[N+](=O)[O-] (configuration not stated)
inactive: Test System: AMES SALMONELLA TYPHIMURIUM, Strain/Indicator: TA97, Metabolic Activation: HAMSTER, LIVER, S-9, AROCLOR 1254 (10%), Method: PREINCUBATION inactive; negative | Test System: AMES SALMONELLA TYPHIMURIUM, Strain/Indicator: TA97, Metabolic Activation: HAMSTER, LIVER, S-9, AROCLOR 1254 (30%), Method: PREINCUBATION inactive; negative | Test System: AMES SALMONELLA TYPHIMURIUM, Strain/Indicator: TA97, Metabolic Activation: NONE, Method: PREINCUBATION inactive; negative | Test System: AMES SALMONELLA TYPHIMURIUM, Strain/Indicator: TA97, Metabolic Activation: RAT, LIVER, S-9, AROCLOR 1254 (10%), Method: PREINCUBATION inactive; negative | Test System: AMES SALMONELLA TYPHIMURIUM, Strain/Indicator: TA97, Metabolic Activation: RAT, LIVER, S-9, AROCLOR 1254 (30%), Method: PREINCUBATION inactive; negative | Test System: AMES SALMONELLA TYPHIMURIUM, Strain/Indicator: TA98, Metabolic Activation: HAMSTER, LIVER, S-9, AROCLOR 1254 (10%), Method: PREINCUBATION inactive; negative | Test System: AMES SALMONELLA TYPHIMURIUM, Strain/Indicator: TA98, Metabolic Activation: HAMSTER, LIVER, S-9, AROCLOR 1254 (30%), Method: PREINCUBATION inactive; negative | Test System: AMES SALMONELLA TYPHIMURIUM, Strain/Indicator: TA98, Metabolic Activation: NONE, Method: PREINCUBATION inactive; negative | Test System: AMES SALMONELLA TYPHIMURIUM, Strain/Indicator: TA98, Metabolic Activation: RAT, LIVER, S-9, AROCLOR 1254 (10%), Method: PREINCUBATION inactive; negative | Test System: AMES SALMONELLA TYPHIMURIUM, Strain/Indicator: TA98, Metabolic Activation: RAT, LIVER, S-9, AROCLOR 1254 (30%), Method: PREINCUBATION inactive; negative | Test System: AMES SALMONELLA TYPHIMURIUM, Strain/Indicator: TA98, Metabolic Activation: RAT, LIVER, S-9, AROCLOR, Method: PREINCUBATION inactive; negative | Test System: AMES SALMONELLA TYPHIMURIUM, Strain/Indicator: TA100, Metabolic Activation: HAMSTER, LIVER, S-9, AROCLOR 1254 (10%), Method: PREINCUBATION inactive; negative | Test System: AMES SALMONELLA TYPHIMURIUM, Strain/Indicator: TA100, Metabolic Activation: HAMSTER, LIVER, S-9, AROCLOR 1254 (30%), Method: PREINCUBATION inactive; negative | [1] inactive; negative | Test System: AMES SALMONELLA TYPHIMURIUM, Strain/Indicator: TA100, Metabolic Activation: RAT, LIVER, S-9, AROCLOR 1254 (10%), Method: PREINCUBATION inactive; negative | Test System: AMES SALMONELLA TYPHIMURIUM, Strain/Indicator: TA100, Metabolic Activation: RAT, LIVER, S-9, AROCLOR 1254 (30%), Method: PREINCUBATION inactive; negative | Test System: AMES SALMONELLA TYPHIMURIUM, Strain/Indicator: TA100, Metabolic Activation: RAT, LIVER, S-9, AROCLOR, Method: PREINCUBATION inactive; negative | Test System: AMES SALMONELLA TYPHIMURIUM, Strain/Indicator: TA102, Metabolic Activation: NONE, Method: PREINCUBATION inactive; negative | Test System: AMES SALMONELLA TYPHIMURIUM, Strain/Indicator: TA102, Metabolic Activation: RAT, LIVER, S-9, AROCLOR, Method: PREINCUBATION inactive; negative | Test System: AMES SALMONELLA TYPHIMURIUM, Strain/Indicator: TA1535, Metabolic Activation: HAMSTER, LIVER, S-9, AROCLOR 1254 (10%), Method: PREINCUBATION inactive; negative | Test System: AMES SALMONELLA TYPHIMURIUM, Strain/Indicator: TA1535, Metabolic Activation: HAMSTER, LIVER, S-9, AROCLOR 1254 (30%), Method: PREINCUBATION inactive; negative | Test System: AMES SALMONELLA TYPHIMURIUM, Strain/Indicator: TA1535, Metabolic Activation: NONE, Method: PREINCUBATION inactive; negative | Test System: AMES SALMONELLA TYPHIMURIUM, Strain/Indicator: TA1535, Metabolic Activation: RAT, LIVER, S-9, AROCLOR 1254 (10%), Method: PREINCUBATION inactive; negative | Test System: AMES SALMONELLA TYPHIMURIUM, Strain/Indicator: TA1535, Metabolic Activation: RAT, LIVER, S-9, AROCLOR 1254 (30%), Method: PREINCUBATION inactive; negative | Test System: AMES SALMONELLA TYPHIMURIUM, Strain/Indicator: TA1537, Metabolic Activation: HAMSTER, LIVER, S-9, AROCLOR 1254 (30%), Method: PREINCUBATION inactive; negative | Test System: AMES SALMONELLA TYPHIMURIUM, Strain/Indicator: TA1537, Metabolic Activation: NONE, Method: PREINCUBATION inactive; negative | Test System: AMES SALMONELLA TYPHIMURIUM, Strain/Indicator: TA1537, Metabolic Activation: RAT, LIVER, S-9, AROCLOR 1254 (30%), Method: PREINCUBATION inactive; negative

CC[C@H]1OC(=O)[C@H](C)[C@@H](O[C@H]2C[C@@](C)(OC)[C@@H](O)[C@H](C)O2)[C@H](C)[C@@H](O[C@@H]2O[C@H](C)C[C@H](N(C)C)[C@H]2O)[C@](C)(O)C[C@@H](C)CN(C)[C@H](C)[C@@H](O)[C@]1(C)O
inactive: Test System: AMES SALMONELLA TYPHIMURIUM, Strain/Indicator: TA98, Metabolic Activation: MOUSE, LIVER, S-9, AROCLOR 1254, Method: STANDARD PLATE inactive; negative | Test System: AMES SALMONELLA TYPHIMURIUM, Strain/Indicator: TA98, Metabolic Activation: MOUSE, LIVER, S-9, Method: STANDARD PLATE inactive; negative | [2] inactive; negative | [3] inactive; negative | Test System: AMES SALMONELLA TYPHIMURIUM, Strain/Indicator: TA98, Metabolic Activation: RAT, LIVER, S-9, Method: STANDARD PLATE inactive; negative | Test System: AMES SALMONELLA TYPHIMURIUM, Strain/Indicator: TA100, Metabolic Activation: MOUSE, LIVER, S-9, AROCLOR 1254, Method: STANDARD PLATE inactive; negative | Test System: AMES SALMONELLA TYPHIMURIUM, Strain/Indicator: TA100, Metabolic Activation: MOUSE, LIVER, S-9, Method: STANDARD PLATE inactive; negative | Test System: AMES SALMONELLA TYPHIMURIUM, Strain/Indicator: TA100, Metabolic Activation: NONE, Method: STANDARD PLATE inactive; negative | Test System: AMES SALMONELLA TYPHIMURIUM, Strain/Indicator: TA100, Metabolic Activation: RAT, LIVER, S-9, AROCLOR 1254, Method: STANDARD PLATE inactive; negative | Test System: AMES SALMONELLA TYPHIMURIUM, Strain/Indicator: TA100, Metabolic Activation: RAT, LIVER, S-9, Method: STANDARD PLATE inactive; negative | Test System: AMES SALMONELLA TYPHIMURIUM, Strain/Indicator: TA1535, Metabolic Activation: MOUSE, LIVER, S-9, AROCLOR 1254, Method: STANDARD PLATE inactive; negative | Test System: AMES SALMONELLA TYPHIMURIUM, Strain/Indicator: TA1535, Metabolic Activation: MOUSE, LIVER, S-9, Method: STANDARD PLATE inactive; negative | Test System: AMES SALMONELLA TYPHIMURIUM, Strain/Indicator: TA1535, Metabolic Activation: NONE, Method: STANDARD PLATE inactive; negative | Test System: AMES SALMONELLA TYPHIMURIUM, Strain/Indicator: TA1535, Metabolic Activation: RAT, LIVER, S-9, AROCLOR 1254, Method: STANDARD PLATE inactive; negative | Test System: AMES SALMONELLA TYPHIMURIUM, Strain/Indicator: TA1535, Metabolic Activation: RAT, LIVER, S-9, Method: STANDARD PLATE inactive; negative | Test System: AMES SALMONELLA TYPHIMURIUM, Strain/Indicator: TA1537, Metabolic Activation: MOUSE, LIVER, S-9, AROCLOR 1254, Method: STANDARD PLATE inactive; negative | Test System: AMES SALMONELLA TYPHIMURIUM, Strain/Indicator: TA1537, Metabolic Activation: MOUSE, LIVER, S-9, Method: STANDARD PLATE inactive; negative | Test System: AMES SALMONELLA TYPHIMURIUM, Strain/Indicator: TA1537, Metabolic Activation: NONE, Method: STANDARD PLATE inactive; negative | Test System: AMES SALMONELLA TYPHIMURIUM, Strain/Indicator: TA1537, Metabolic Activation: RAT, LIVER, S-9, AROCLOR 1254, Method: STANDARD PLATE inactive; negative | Test System: AMES SALMONELLA TYPHIMURIUM, Strain/Indicator: TA1537, Metabolic Activation: RAT, LIVER, S-9, Method: STANDARD PLATE inactive; negative | Test System: MOUSE LYMPHOMA, Strain/Indicator: L5178Y (TK+/TK-), Metabolic Activation: NONE, Method: SUSPENSION/PLATE inactive; negative | Test System: MOUSE LYMPHOMA, Strain/Indicator: L5178Y (TK+/TK-), Metabolic Activation: RAT, LIVER, S-9, Method: SUSPENSION/PLATE inactive; negative

O=CCO
inactive: [1] inactive; negative

COc1cc(NC(C)=O)ccc1NC(C)=O
inactive: [2] inactive; negative | [3] inactive; negative
